Measured values as given in US20250163043A1 (TRANSTHERA SCIENCES (NANJING), INC., priority 2021, published 2025).

How the values were obtained:
Assay type in all cases: biochemical
[1] = target: CDK3/CycE1 (Homo sapiens, UniProt Q00526); assay: ADP-Glo kinase assay on CDK enzymatic activity, CDK3/CycE1; details: 10 concentrations from 10 μM, 4-fold, 60 min room temperature
Text: (§1) Test samples: the compounds of the present invention, having structures shown above.
(§2) ADP-Glo Kinase Assay (ADP-Glo kinase kit), DMSO (dimethyl sulfoxide), CDK9/CycT1 (cyclin-dependent kinase 9/cyclin T1), CDK tide (cyclin-dependent kinase substrate peptide fragments), CDK1/CycE1 (cyclin-dependent kinase 1/cyclin E1), CDK2/CycA2 (cyclin-dependent kinase 2/cyclin A2), CDK3/CycE1 (cyclin-dependent kinase 3/cyclin E1), CDK4/CycD3 (cyclin-dependent kinase 4/cyclin D3), CDK5/p25NCK (cyclin-dependent kinase 5/p25), and AZD 4573.
(§3) A 384-well white plate, a 96-well plate, a microplate oscillator, a centrifuge, and a microplate reader.
(§4) The compounds were dissolved in DMSO and diluted 4-fold in the 96-well plate to obtain stock solutions with 10 concentration gradients, and added into a 384-well plate system to obtain a series of 10 concentration gradients of compound solutions with final concentrations of 10 μM starting and 4-fold gradient decreasing. 1 μM AZD4573 was used as compound positive control (PC) and 0.5% DMSO as solvent vehicle control (VC), ten duplicated wells each for PC and VC.
(§5) 1 μL of compound solution and 2 μL of 2× kinase solution were transferred to each well, and the plate was centrifuged at 1000 g for 30 s and left at room temperature for 10 min. A mixture of 2× substrate and ATP was prepared in 1× kinase buffer. The reaction was started after adding 2 μL of substrate and ATP into the plate. The plate was centrifuged at 1000 g for 30 s. The assay plate was closed and left at room temperature for 60 min. The reaction system was added with 4 μL of ADP Glo reagent, centrifuged at 1000 rpm for 1 min, and incubated at room temperature for 40 min. The reaction system was added with 8 μL of kinase assay reagent, centrifuged at 1000 rpm for 1 min and incubated at room temperature for 40 min. The […] was read on Biotek.
(§6) The inhibition rate was calculated according to the following formula: […]
(§7) Lumcmpd: compound fluorescence reading; Lumpositive: average value of the fluorescence reading of positive compound control; Lumvehicle: average value of the fluorescence reading of solvent vehicle control.
(§8) IC50 values were fitted using GraphPad 7.0 based on inhibition rates of compounds at different concentrations.

[2] = target: CDK9/CycT1 (Homo sapiens, UniProt P50750); assay: ADP-Glo kinase assay on CDK enzymatic activity, CDK9/CycT1; details: 10 concentrations from 10 μM, 4-fold, 60 min room temperature
Sequence of CDK9/CycT1 (P50750 whole entry): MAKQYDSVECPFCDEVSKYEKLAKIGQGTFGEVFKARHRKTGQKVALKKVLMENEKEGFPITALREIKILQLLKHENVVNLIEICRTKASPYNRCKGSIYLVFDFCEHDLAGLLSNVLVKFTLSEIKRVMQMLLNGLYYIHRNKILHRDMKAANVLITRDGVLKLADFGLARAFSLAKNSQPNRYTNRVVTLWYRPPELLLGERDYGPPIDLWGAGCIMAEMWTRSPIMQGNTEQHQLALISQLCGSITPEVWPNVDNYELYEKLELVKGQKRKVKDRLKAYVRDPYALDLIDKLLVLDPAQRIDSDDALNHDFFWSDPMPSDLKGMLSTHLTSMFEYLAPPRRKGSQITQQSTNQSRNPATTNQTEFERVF
Sequence of CDK9/CycT1 (O60563 whole entry partner): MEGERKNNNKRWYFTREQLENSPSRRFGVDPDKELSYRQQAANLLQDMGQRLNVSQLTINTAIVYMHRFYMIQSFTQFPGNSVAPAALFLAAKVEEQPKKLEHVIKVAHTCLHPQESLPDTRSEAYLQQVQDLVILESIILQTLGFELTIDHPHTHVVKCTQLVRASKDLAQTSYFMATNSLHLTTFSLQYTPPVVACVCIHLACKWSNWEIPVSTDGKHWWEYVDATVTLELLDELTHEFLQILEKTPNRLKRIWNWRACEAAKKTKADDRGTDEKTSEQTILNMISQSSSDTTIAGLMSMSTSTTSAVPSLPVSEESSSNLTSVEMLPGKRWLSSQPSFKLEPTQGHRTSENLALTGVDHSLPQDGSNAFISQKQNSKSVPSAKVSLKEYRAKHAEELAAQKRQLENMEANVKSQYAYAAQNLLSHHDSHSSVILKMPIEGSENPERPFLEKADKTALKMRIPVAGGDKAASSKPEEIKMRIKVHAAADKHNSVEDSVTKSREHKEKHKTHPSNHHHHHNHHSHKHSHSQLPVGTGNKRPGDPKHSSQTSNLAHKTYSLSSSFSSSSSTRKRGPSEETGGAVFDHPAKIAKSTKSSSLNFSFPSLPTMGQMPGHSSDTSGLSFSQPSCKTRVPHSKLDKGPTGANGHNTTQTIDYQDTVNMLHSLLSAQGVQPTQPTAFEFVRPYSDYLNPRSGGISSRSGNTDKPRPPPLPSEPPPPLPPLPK
How it was run: (§9)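 Kinase and compound are mixed and held 10 min at room temperature before substrate peptide and ATP start a 60 min reaction. Remaining ATP is depleted with ADP-Glo reagent (40 min), detection reagent is added (40 min), and luminescence gives inhibition rates across ten concentrations from 10 μM, fitted to IC50.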

[3] = target: CDK1/CycE1 (Homo sapiens, UniProt P06493); assay: ADP-Glo kinase assay on CDK enzymatic activity, CDK1/CycE1; details: ADP-Glo; 10 concentrations from 10 μM, 4-fold; 60 min room temperature; read-out: CDK1/CycE1/nM (IC50)
Sequence of CDK1/CycE1 (P06493 whole entry, species assumed): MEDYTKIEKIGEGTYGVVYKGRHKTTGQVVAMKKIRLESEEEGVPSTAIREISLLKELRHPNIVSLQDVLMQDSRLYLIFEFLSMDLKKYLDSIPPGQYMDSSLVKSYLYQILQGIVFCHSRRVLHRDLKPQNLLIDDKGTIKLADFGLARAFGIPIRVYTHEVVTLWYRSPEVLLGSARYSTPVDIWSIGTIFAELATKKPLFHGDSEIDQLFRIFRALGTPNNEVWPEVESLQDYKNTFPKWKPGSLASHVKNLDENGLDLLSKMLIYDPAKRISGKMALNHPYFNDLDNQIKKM
Sequence of CDK1/CycE1 (P24864 whole entry partner, species assumed): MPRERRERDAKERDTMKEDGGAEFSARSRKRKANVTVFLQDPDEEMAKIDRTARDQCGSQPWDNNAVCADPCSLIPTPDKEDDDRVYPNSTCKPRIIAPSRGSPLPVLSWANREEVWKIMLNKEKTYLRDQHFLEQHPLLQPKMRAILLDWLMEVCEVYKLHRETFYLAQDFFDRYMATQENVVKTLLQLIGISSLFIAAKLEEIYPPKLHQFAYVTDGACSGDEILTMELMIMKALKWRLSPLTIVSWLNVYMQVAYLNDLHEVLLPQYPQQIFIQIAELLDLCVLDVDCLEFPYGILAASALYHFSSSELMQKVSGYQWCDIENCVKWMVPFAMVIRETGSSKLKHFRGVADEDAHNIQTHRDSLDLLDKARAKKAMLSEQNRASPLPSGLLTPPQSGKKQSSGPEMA
How it was run: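 Compounds in 10-point 4-fold dilutions from 10 μM final, preincubated 10 min with kinase, then substrate/ATP added; 60 min reaction at room temperature. ADP-Glo luminescence read.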

[4] = target: CDK5/p25NCK (Homo sapiens, UniProt Q00535); assay: ADP-Glo kinase assay on CDK enzymatic activity, CDK5/p25NCK; details: 10 concentrations from 10 μM, 4-fold, 60 min room temperature
Sequence of CDK5/p25NCK (Q00535 whole entry, species assumed): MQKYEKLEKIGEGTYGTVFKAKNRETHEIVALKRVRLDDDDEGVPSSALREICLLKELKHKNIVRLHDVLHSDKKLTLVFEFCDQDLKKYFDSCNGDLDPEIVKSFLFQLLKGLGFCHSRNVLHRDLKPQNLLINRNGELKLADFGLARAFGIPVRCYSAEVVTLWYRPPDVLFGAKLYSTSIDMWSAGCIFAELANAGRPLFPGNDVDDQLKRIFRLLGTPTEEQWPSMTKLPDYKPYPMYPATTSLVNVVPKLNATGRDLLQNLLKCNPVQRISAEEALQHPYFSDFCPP
Sequence of CDK5/p25NCK (Q15078 99-307 partner limits assumed, species assumed): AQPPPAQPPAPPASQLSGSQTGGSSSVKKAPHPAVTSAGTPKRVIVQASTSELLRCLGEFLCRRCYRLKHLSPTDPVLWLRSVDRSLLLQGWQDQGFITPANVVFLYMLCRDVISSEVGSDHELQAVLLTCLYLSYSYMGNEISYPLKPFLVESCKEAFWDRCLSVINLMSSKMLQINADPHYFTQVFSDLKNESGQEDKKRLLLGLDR
Text: as §1, §2, §3, §4, §5, §6, §7, §8

[5] = target: CDK2/CycA2 (Homo sapiens, UniProt P24941); assay: ADP-Glo kinase assay on CDK enzymatic activity, CDK2/CycA2; details: 10 concentrations from 10 μM, 4-fold, 60 min room temperature
How it was run: as §9

Sequence of CDK3/CycE1 (Q00526 whole entry, species assumed): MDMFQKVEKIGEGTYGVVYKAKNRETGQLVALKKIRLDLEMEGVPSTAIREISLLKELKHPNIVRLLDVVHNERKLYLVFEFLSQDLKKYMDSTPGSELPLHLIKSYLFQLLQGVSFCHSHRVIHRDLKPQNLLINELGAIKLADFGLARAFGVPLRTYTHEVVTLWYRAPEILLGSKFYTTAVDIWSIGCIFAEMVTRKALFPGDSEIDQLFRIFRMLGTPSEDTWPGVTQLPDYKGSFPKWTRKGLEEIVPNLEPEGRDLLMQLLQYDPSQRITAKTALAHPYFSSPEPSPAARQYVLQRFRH
Sequence of CDK3/CycE1 (P24864 whole entry partner, species assumed): as the sequence (P24864 whole entry partner, species assumed) above

Row | IC50 [1] | IC50 [2] | IC50 [3] | IC50 [4] | IC50 [5] | Structure (SMILES)
1 | 53 nM | 4 nM | 48 nM | 465 nM | 48 nM | CC(C)(C)Nc1nc(C(F)F)cc2cnc(NC3CCNCC3)nc12 [Compound C2, N^8-(tert-butyl)-6-(difluoromethyl)-N^2-(piperidin-4-yl)pyrido[3,4-d]pyrimidine-2,8-diamine]
2 | 398 nM | 3 nM | 206 nM | 294 nM | 167 nM | CC(C)Nc1nc(C#N)cc2cnc(N[C@H]3CC[C@H](C)NC3)cc12 [Compound 103, 1-(isopropylamino)-7-(((3S,6S)-6-methylpiperidin-3-yl)amino)-2,6-naphthyridine-3-carbonitrile]
3 | 915 nM | 3 nM | 336 nM | 176 nM | 352 nM | CCNc1nc(C#N)cc2cnc(N[C@H]3CCCNC3)cc12 [Compound 186, (S)-1-(ethylamino)-7-(piperidin-3-ylamino)-2,6-naphthyridine-3-carbonitrile]
4 | 1410 nM | 2 nM | 903 nM | 523 nM | 1010 nM | CC1(Oc2nc(C#N)cc3cnc(N[C@H]4CCCNC4)cc23)CC1 [Compound 204, (S)-1-(1-methylcyclopropoxy)-7-(piperidin-3-amino)-2,6-naphthyridine-3-carbonitrile]
5 | 189 nM | 2 nM | 215 nM | 53 nM | 83 nM | FC(F)c1cc2cnc(N[C@H]3CCCNC3)cc2c(N[C@@H]2CCOC2)n1 [Compound 201, 3-(difluoromethyl)-N7—((S)-piperidin-3-yl)-N^1—((R)-tetrahydrofuran-3-yl)-2,6-naphthyridine-1,7-diamine]
6 | 7 nM | 2 nM | 7 nM | 17 nM | 21 nM | CC(C)(C)Nc1nc(C(F)F)cc2cnc(N[C@H]3CCCNC3)nc12 [Compound C1]
7 | 832 nM | 8 nM | 411 nM | 4140 nM | 1290 nM | N#Cc1cc2cnc(N[C@H]3CCCNC3)cc2c(N[C@H]2CCOC2)n1 [Compound 151, 7-(((S)-piperidin-3-yl)amino)-1-(((S)-tetrahydrofuran-3-yl)amino)-2,6-naphthyridine-3-carbonitrile]
8 | 8 nM | 1 nM | 10 nM | 46 nM | 14 nM | CC(C)Nc1nc(C#N)cc2cnc(N[C@H]3C[C@H](N)C3)nc12 [Compound 127, 2-(((1r,3r)-3-aminocyclobutyl)amino)-8-(isopropylamino)pyrido[3,4-d]pyrimidine-6-carbonitrile]
9 | 66 nM | 2 nM | 90 nM | 306 nM | 600 nM | CC(C)Nc1nc(C#N)cc2cnc(N[C@H]3CCCCNC3)cc12 [Compound 142, (S)-7-(azepan-3-ylamino)-1-(isopropylamino)-2,6-naphthyridine-3-carbonitrile]
10 | 1100 nM | 2 nM | 149 nM | 263 nM | 244 nM | CCOc1nc(C(F)F)cc2cnc(N[C@H]3C[C@H](N)C3)cc12 [Compound 200, (trans)-N^1-(7-(difluoromethyl)-5-ethoxy-2,6-naphthyridin-3-yl)cyclobutane-1,3-diamine]
11 | 92 nM | 2 nM | 114 nM | 63 nM | 29 nM | CC(C)Nc1nc(C#N)cc2cnc(N[C@H]3CCCOC3)nc12 [Compound 116, (S)-8-(isopropylamino)-2-((tetrahydro-2H-pyran-3-yl)amino)pyrido[3,4-d]pyrimidine-6-carbonitrile]
12 | 28 nM | 2 nM | 90 nM | 195 nM | 146 nM | N#Cc1cc2cnc(N[C@H]3CCCNC3)cc2c(NC2CCC2)n1 [Compound 144, (S)-1-(cyclobutylamino)-7-(piperidin-3-ylamino)-2,6-naphthyridine-3-carbonitrile]
13 | 398 nM | 4 nM | 521 nM | 168 nM | 337 nM | FC(F)c1cc2cnc(N[C@H]3CCCNC3)cc2c(O[C@@H]2CCOC2)n1 [Compound 202, 7-(difluoromethyl)-N—((S)-piperidin-3-yl)-5-(((R)-tetrahydrofuran-3-yl)oxy)-2,6-naphthyridin-3-amine]
14 | 32 nM | 2 nM | 25 nM | 447 nM | 74 nM | CC(C)Nc1nc(C#N)cc2cnc(NC3CC4(CNC4)C3)nc12 [Compound 130, 2-((2-azaspiro[3.3]heptan-6-yl)amino)-8-(isopropylamino)pyrido[3,4-d]pyrimidine-6-carbonitrile]
15 | 49 nM | 1 nM | 104 nM | 165 nM | 171 nM | CC1(Nc2nc(C#N)cc3cnc(N[C@H]4CCCNC4)cc23)CC1 [Compound 148, (S)-1-((1-methylcyclopropyl)amino)-7-(piperidin-3-ylamino)-2,6-naphthyridine-3-carbonitrile]
16 | 287 nM | 2 nM | 95 nM | 238 nM | 181 nM | CC(C)Nc1nc(C#N)cc2cnc(N[C@H]3C[C@@H](N)C3)nc12 [Compound 126, 2-(((1s,3s)-3-aminocyclobutyl)amino)-8-(isopropylamino)pyrido[3,4-d]pyrimidine-6-carbonitrile]
17 | 67 nM | 2 nM | 133 nM | 706 nM | 562 nM | CC(C)Oc1nc(C#N)cc2cnc(N[C@H]3CCCNC3)cc12 [Compound 153, (S)-1-(isopropoxy)-7-(piperidin-3-ylamino)-2,6-naphthyridine-3-carbonitrile]
18 | 60 nM | 1 nM | 42 nM | 295 nM | 126 nM | CC(C)(C)Nc1nc(C#N)cc2cnc(N[C@H]3CCCNC3)cc12 [Compound 149, (S)-1-(tert-butylamino)-7-(piperidin-3-ylamino)-2,6-naphthyridine-3-carbonitrile]
19 | 281 nM | 2 nM | 608 nM | 1460 nM | 450 nM | N#Cc1cc2cnc(N[C@H]3CCCNC3)cc2c(N[C@@H]2CCOC2)n1 [Compound 150, 7-(((S)-piperidin-3-yl)amino)-1-(((R)-tetrahydrofuran-3-yl)amino)-2,6-naphthyridine-3-carbonitrile]
20 | 629 nM | 6 nM | 678 nM | 1530 nM | 388 nM | CC(C)Nc1nc(C#N)cc2cnc(N[C@H]3CCCNCC3)nc12 [Compound 131, (S)-2-(azepan-4-ylamino)-8-(isopropylamino)pyrido[3,4-d]pyrimidine-6-carbonitrile]

Row | Structure (SMILES) | IC50 [1] | IC50 [2] | IC50 [3] | IC50 [4] | IC50 [5]
21 | CC(C)(C)Oc1nc(C#N)cc2cnc(N[C@H]3CCCNC3)cc12 [Compound 152, (S)-1-(tert-butoxy)-7-(piperidin-3-ylamino)-2,6-naphthyridine-3-carbonitrile] | 124 nM | 2 nM | 110 nM | 1000 nM | 267 nM
